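Grown in 96-well plates, cells were treated for 48 hours with each compound at five concentrations. Insufficient inhibition: endpoint recorded as highest concentration tested. TGI: concentration producing complete growth inhibition.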
Assays:
Assay in all cases: NCI-60 cell line screen, 48 h
[1] = system: SNB-75 CNS
[2] = system: A549 NSCLC
[3] = system: COLO 205 colon
[4] = system: SK-MEL-2 melanoma
[5] = system: SF-268 CNS
[6] = system: HOP-62 NSCLC
[7] = system: IGROV1 ovarian
[8] = system: NCI-H522 lung
[9] = system: EKVX NSCLC
[10] = system: PC-3 prostate
[11] = system: MCF7 breast
[12] = system: MDA-MB-231 breast
[13] = system: BT-549 breast

SMILES	TGI [1]	TGI [2]	TGI [3]	TGI [4]	TGI [5]	TGI [6]	TGI [7]	TGI [8]	TGI [9]	TGI [10]	TGI [11]	TGI [12]	TGI [13]
CC(=O)OC1CC2C(C)(C)OC(=O)CC(OC(C)=O)[C@]2(C)C2CCC3(C)C(=CCC3c3ccoc3)[C@]12C (stereo partly drawn)	83.5 µM	> 100 µM	29.8 µM	25.1 µM	> 100 µM	96.6 µM	82.8 µM	81.2 µM	> 100 µM				
Oc1ccccc1-c1n[nH]c(-c2ccccc2O)n1	> 100 µM	> 100 µM	> 85.8 µM	> 100 µM	> 100 µM	> 100 µM	> 100 µM		> 34 µM	4.72 µM	> 100 µM	> 100 µM	> 100 µM
Brc1ccc(N=Nc2ccc3ccccc3n2)cc1	40.6 µM	> 100 µM	> 100 µM	> 100 µM	94 µM		65.5 µM	21.4 µM	> 100 µM	> 100 µM	> 100 µM		60.5 µM
O=C(NN1C(=O)C(Cl)C1c1cccc(Cl)c1)c1ccccc1O (stereo not drawn)	> 100 µM	> 100 µM		> 100 µM	> 100 µM		> 100 µM	> 100 µM					
O=C1O/C(=C(/Cl)c2c3ccccc3cc3ccccc23)c2ccccc21	36.6 µM	> 100 µM	49.2 µM	51.2 µM	> 100 µM	57.8 µM	71.2 µM	> 100 µM	> 100 µM	> 100 µM	> 100 µM	40.3 µM	
COC(=O)/C=C1/OC(c2ccc(C)cc2C)=CC1=O	29.4 µM		30.2 µM		48.9 µM	61.2 µM	22 µM	43.3 µM	> 100 µM	34.9 µM	28.3 µM	27.5 µM	29.9 µM
Cc1ccc2nc(-c3ccc(-c4nc5ccc(C)cc5o4)c(O)c3)oc2c1	> 100 µM	> 100 µM	> 100 µM	> 100 µM	> 100 µM	> 100 µM				> 100 µM	> 100 µM	> 100 µM	
CC1(C)N([O-])[N+](=O)C1(Br)c1ccccc1 (stereo not drawn)	> 100 µM	> 100 µM	> 100 µM	> 100 µM	> 100 µM	> 100 µM	> 100 µM		> 100 µM	> 100 µM	> 100 µM	> 100 µM	
COC(=O)C1Cc2c([nH]c3ccccc23)-c2[nH]c3ccccc3c2CC(NC(C)=O)C(=O)NCC(=O)NCC(=O)N1 (stereo not drawn)	> 100 µM	> 100 µM	> 100 µM	> 100 µM	> 100 µM	> 100 µM	> 100 µM	> 100 µM	> 100 µM	> 100 µM		> 100 µM	> 100 µM
C=CC[C@@]12CCC(=O)C=C1CCCC2=O		> 100 µM	> 100 µM	> 100 µM	> 100 µM	> 100 µM	> 100 µM	> 100 µM	> 100 µM	> 100 µM	> 100 µM	> 100 µM	
COc1cccc(N2C(=O)C3c4[nH]c5ccc(C)cc5c4C4CCC(C)CC4C3C2=O)c1 (stereo not drawn)		> 100 µM	> 100 µM	> 100 µM	> 100 µM	42.6 µM	> 100 µM		> 100 µM	> 100 µM	> 100 µM	> 100 µM	> 100 µM
COc1ccc(C(c2cc(OC)c(OC)c(OC)c2)N2C(=O)CCC2C(=O)O)cc1 (stereo not drawn)	> 100 µM	> 100 µM	> 100 µM	> 100 µM	> 100 µM	> 100 µM	> 100 µM	> 100 µM	> 100 µM	> 100 µM	> 100 µM	> 100 µM	
CC(=O)c1sc2n(C)c(=O)c3ccccc3[n+]2c1C		> 100 µM	> 100 µM	> 100 µM	> 100 µM	> 100 µM	> 100 µM	> 100 µM	> 100 µM	> 100 µM	> 100 µM	> 100 µM	> 100 µM
CCOC(=O)CON=c1c2ccccc2ccc2ccccc12	> 100 µM	> 100 µM	> 100 µM	> 100 µM	> 100 µM	> 100 µM	> 100 µM		> 100 µM	> 100 µM	> 100 µM	> 100 µM	> 100 µM
Cc1cc(C)nc(NS(=O)(=O)c2ccc(Nc3nnc(/C=C/c4c(O)ccc5ccccc45)c(=O)n3N)cc2)n1	55.9 µM	> 100 µM			> 100 µM	> 100 µM	> 100 µM		78.5 µM		45.7 µM		62.5 µM
CN(C)c1cccc(/C=C(\C#N)c2ccccc2)c1	5.05 µM	> 79.9 µM	5.41 µM	47.5 µM	> 100 µM	8.65 µM	> 72.5 µM	5.75 µM	> 100 µM	> 100 µM		53.7 µM	> 100 µM
Cc1ncc([N+](=O)[O-])n1CCNC(=O)Cn1ccnc1[N+](=O)[O-]	> 100 µM	> 100 µM	> 100 µM	> 100 µM	> 100 µM	> 100 µM	> 100 µM	> 100 µM		> 100 µM	> 100 µM	> 100 µM	> 100 µM
CC(C)(C)OC(=O)NC(Cc1ccc(OCc2ccccc2)cn1)C(=O)O (stereo not drawn)		> 100 µM	> 100 µM		> 100 µM	> 100 µM	> 100 µM	> 100 µM	> 100 µM	> 100 µM	> 100 µM	> 100 µM	> 100 µM
C/C(CC(=O)Nc1ccccc1)=N\NC(N)=S	> 100 µM	> 100 µM	> 100 µM	> 100 µM	> 100 µM	> 100 µM	> 100 µM	> 100 µM	> 100 µM				
Cc1ccc(/C=C2\CCCCCC2=O)cc1	> 100 µM	> 100 µM	> 100 µM	> 100 µM	> 100 µM	> 100 µM	> 100 µM	> 100 µM	> 100 µM	> 100 µM		> 100 µM	> 100 µM
Cc1ccc(S(=O)(=O)NC(=O)NCC(N)=O)cc1	> 100 µM	> 100 µM	> 100 µM	> 100 µM	> 100 µM	> 100 µM	> 100 µM	> 100 µM		> 100 µM	> 100 µM	> 100 µM	> 100 µM

SMILES	TGI [1]	TGI [2]	TGI [3]	TGI [4]	TGI [5]	TGI [6]	TGI [7]	TGI [8]	TGI [9]	TGI [10]	TGI [11]	TGI [12]	TGI [13]
[O-]/[N+](=N/c1ncc(-c2ccccc2)cn1)c1ncc(-c2ccccc2)cn1	> 100 µM	> 100 µM	> 100 µM	> 100 µM	> 100 µM	> 100 µM	> 100 µM	32.3 µM	> 100 µM	> 100 µM	> 100 µM	> 100 µM	
C=CCN(N=O)C(=O)N(CCCCC(NC(C)=O)C(=O)NCc1ccccc1)Cc1ccccc1 (stereo not drawn)	> 100 µM	> 100 µM	51.7 µM	> 100 µM	> 100 µM	> 100 µM	> 100 µM	39.9 µM	> 100 µM				
O=c1[nH]cc(COCC(O)CO)c(=O)[nH]1 (stereo not drawn)	> 100 µM	> 100 µM	> 100 µM	> 100 µM	> 100 µM	> 100 µM	> 100 µM	> 100 µM	> 100 µM				
O=C(/C=N/O)Nc1ccc(Cl)c(I)c1		94 µM	31.7 µM	31.3 µM	69.2 µM	70.7 µM	39.2 µM	34.6 µM	63.9 µM				
COC1=CC(=O)c2c(n[nH]c2CCNC(=O)OCc2ccccc2)C1=O		40.4 µM	33.9 µM	23.7 µM		37.2 µM	29 µM	21.1 µM	32 µM	> 100 µM	22.2 µM	31.3 µM	32.5 µM
CCN(CC)c1ccc2cc(-c3csc(C)n3)c(=O)oc2c1	9.42 µM	> 100 µM	> 100 µM	> 100 µM	> 100 µM	94.6 µM	> 100 µM		> 100 µM	> 100 µM	> 100 µM	> 100 µM	> 100 µM
O=[N+]([O-])c1cc(Cl)ccc1S(=O)(=O)c1ccc(Cl)cc1[N+](=O)[O-]	29.7 µM	70 µM	30.7 µM	33 µM	29.2 µM	35.9 µM	29.4 µM	29.9 µM					
CC1CN=C(NS(=O)(=O)c2cc(C(=O)Nc3ccccc3)c(Cl)cc2S)NN1 (stereo not drawn)		> 100 µM	> 100 µM	71.6 µM	> 100 µM	> 100 µM	83.3 µM	76.1 µM	> 100 µM	> 100 µM	> 100 µM	> 100 µM	> 100 µM
O=C1COc2cc3c(cc2N1)SCCC(=O)N3	> 100 µM	> 100 µM	> 100 µM	> 100 µM	> 100 µM	> 100 µM	> 100 µM	> 100 µM	> 100 µM				
CC(=O)c1c2c(cc3c1CC1(C3)Cc3cc4c(c(C(C)=O)c3C1)CCCC4)CCCC2		> 100 µM	> 100 µM	83.2 µM		> 100 µM	> 100 µM	> 100 µM	> 100 µM	> 100 µM	> 100 µM	> 100 µM	
OCCSCC/C(=N\N=C(/CCSCCO)c1ccccc1)c1ccccc1		> 100 µM	> 100 µM	> 100 µM	> 100 µM	> 100 µM	> 100 µM		> 100 µM				
CC1(C)CC2C(/C1=N/O)C1(C)CCCC2(C)C1O (stereo not drawn)	> 100 µM	> 100 µM	> 100 µM	> 100 µM	> 100 µM	> 100 µM	> 100 µM	> 100 µM	> 100 µM	> 100 µM	> 100 µM		> 100 µM
O=C(Nc1ccccc1[N+](=O)[O-])C(=O)C(C(=O)c1ccccc1-c1ccccc1)C1OC(=O)c2ccccc21 (stereo not drawn)	53.4 µM	72.6 µM	32.6 µM	65.2 µM	41 µM	36 µM	51.3 µM	25.3 µM	51 µM				
CCOC(=O)C(C)c1nc2cc(C(F)(F)F)ccc2[nH]c1=O (stereo not drawn)	> 100 µM	> 100 µM	> 100 µM	> 100 µM	> 100 µM	> 100 µM			> 100 µM	> 100 µM	> 100 µM	> 100 µM	> 100 µM
COC(=O)/C=C/c1ccc2c(c1)[C@H](C(=O)OC)[C@@H](c1ccc(O)cc1)O2		> 100 µM	89.4 µM	31.2 µM	83.8 µM	> 100 µM	> 100 µM	74.2 µM	> 100 µM	> 100 µM	48.6 µM	> 100 µM	46.4 µM
N#CCN1CCN(CC#N)CCN(CC#N)CCN(CC#N)CC1	> 100 µM	> 100 µM	> 100 µM	> 100 µM	> 100 µM	> 100 µM	> 100 µM	> 100 µM		> 100 µM	> 100 µM	> 100 µM	> 100 µM
Cn1nc(S(N)(=O)=O)s/c1=N/S(=O)(=O)c1ccc(N)cc1	> 100 µM	> 100 µM	> 100 µM	> 100 µM	> 100 µM	> 100 µM			> 100 µM	> 100 µM		> 100 µM	> 100 µM
CC(C(=O)O)C1Nc2ccccc2NC1=O (stereo not drawn)	> 100 µM	> 100 µM	> 100 µM	> 100 µM	> 100 µM		> 100 µM		> 100 µM	> 100 µM	> 100 µM	> 100 µM	> 100 µM
COc1ccc(-c2cc(=O)c3ccc(F)cc3[nH]2)cc1	> 100 µM	> 100 µM	> 100 µM		> 100 µM	> 100 µM	> 100 µM	> 100 µM	> 100 µM				
C/C(=C(/C)c1cc[n+](C)cc1)c1cc[n+](C)cc1	> 75 µM	> 75 µM	> 75 µM	> 75 µM	> 75 µM	> 75 µM	> 75 µM	> 75 µM	> 75 µM				
